Measurements taken from patent publication US11345694B2, “Antibacterial compounds” (DISCUVA LTD., priority 2017, dated 2022).
Converted amounts (≈) assume the structure as drawn.

Assays:
[1] = system: Pseudomonas aeruginosa ATCC 33359 (PA); assay: MIC broth microdilution; format: cell-based; conditions: ATCC33359
Method: (§1) Minimum Inhibitory Concentrations (MICs) versus planktonic bacteria are determined by the broth microdilution procedure according to the guidelines of the Clinical and Laboratory Standards Institute (Clinical and Laboratory Standards Institute. Methods for Dilution Antimicrobial Susceptibility Tests for Bacteria That Grow Aerobically; Approved Standard-tenth Edition. CLSI document M07-A10, 2015). The broth dilution method involves a two-fold serial dilution of compounds in 96-well microtitre plates, giving a final concentration range of 0.39-200 μM and a maximum final concentration of 2% DMSO. The bacterial strains tested include Escherichia coli K12 (EC), E. coli NCTC 13441 (UPEC), Staphylococcus aureus ATCC 35556 (SA), Acinetobacter baumannii ATCC 17978 (AB), Pseudomonas aeruginosa ATCC 33359 (PA), Enterobacter cloacae DSM 30054 (Ed), Serratia marcescens SL1344 (Sm), Salmonella typhimurium XNAA5 (St), Klebsiella pneumoniae ATCC 10031 (KP2), K. pneumoniae NCTC 13438 (KP1), K. pneumoniae ATCC 700603 (KP3), Klebsiella pneumoniae ATCC 51504 (KP4), K. pneumoniae H154680676 (KP5), K. pneumoniae H154020667 (KP6), K. pneumoniae H154640784 (KP7), K. pneumoniae H154600588 (KP8), K. pneumoniae H154300688 (KP9), K. pneumoniae H151440671 (KP10). Strains are grown in cation-adjusted Müller-Hinton broth or on Luria Bertoni agar at 37° C. in an ambient atmosphere. The MIC is determined as the lowest concentration of compound that inhibits growth following a 20-24 hour incubation period.

[2] = system: Staphylococcus aureus ATCC 35556 (SA); assay: MIC broth microdilution; format: cell-based; conditions: ATCC35556
Method: as §1

[3] = system: Escherichia coli K12 (EC); assay: MIC broth microdilution; format: cell-based
Method: as §1

[4] = system: Acinetobacter baumannii ATCC 17978 (AB); assay: MIC broth microdilution; format: cell-based; conditions: ATCC17978
Method: as §1

[5] = system: Klebsiella pneumoniae ATCC 10031 (KP2); assay: MIC broth microdilution; format: cell-based; conditions: ATCC10031
Method: as §1

[6] = system: human hepatocarcinoma cell line ATCC HB-8065 (HepG2); assay: Human cell viability (CellTiter-Glo); format: cell-based; conditions: Homo sapiens; HepG2 cells, 24 h incubation, CellTiter-Glo luminescence, 0.2-100 μM; read-out: IC50 values against the HepG2 cell line
Method: Compounds are assessed for potential non-specific cytotoxic effects against the human hepatocarcinoma cell line ATCC HB-8065 (HepG2). HepG2 cells are seeded at 20,000 cells/well in 96-well microtitre plates in minimal essential medium (MEM) supplemented with a final concentration of 10% FBS. After 24 h, compound dilutions are prepared in MEM supplemented with a final concentration of 1% FBS, and added to the cells. Compounds are tested in two-fold serial dilutions over a final concentration range of 0.2-100 μM in a final DMSO concentration of 1% vol/vol. Thioridazine is used as a positive control. Cells are incubated with compound at 37° C. and 5% CO2 for a further 24 h, after which time the CellTiter-Glo reagent (Promega) is added. Luminescence is measured on a Perkin Elmer Envision plate reader. Data are analysed using a 4 parameter logistic regression to determine the concentration of compound that inhibits cell viability by fifty percent (IC50).

[7] = system: E. coli NCTC 13441 (UPEC); assay: MIC broth microdilution; format: cell-based, Escherichia coli; conditions: Escherichia coli, NCTC13441
Method: as §1

[8] = system: K. pneumoniae NCTC 13438 (KP1); assay: MIC broth microdilution; format: cell-based, Klebsiella pneumoniae; conditions: Klebsiella pneumoniae, NCTC13438
Method: as §1

| MIC [1] [µM] | MIC [2] [µM] | MIC [3] [µM] | MIC [4] [µM] | MIC [5] [µM] | IC50 [6] [µM] | MIC [7] [µM] | MIC [8] [µM] | Compound |
| --- | --- | --- | --- | --- | --- | --- | --- | --- |
| > 100 | > 100 | ≤ 1 | > 100 | ≤ 1 | > 100 | ≤ 1 | 1 to 10 (≈ 0.306 to 3.06 µg/mL) | Cc1cc(-c2[nH]c(N)nc2-c2ccc3c(c2)CC(C)O3)ccn1 (racemic) [Example 41, 4-(2-Methyl-2,3-dihydrobenzofuran-5-yl)-5-(2-methylpyridin-4-yl)-1H-imidazol-2-amine] |
| > 100 | > 100 | 1 to 10 (≈ 0.321 to 3.21 µg/mL) | > 100 | ≤ 1 | > 100 | 1 to 10 (≈ 0.321 to 3.21 µg/mL) | 10 to 100 (≈ 3.21 to 32.1 µg/mL) | Cc1cc(-c2[nH]c(CN)nc2-c2ccc3c(c2)NCCO3)ccn1 [Compound 88] |
| > 100 | > 100 | 10 to 100 (≈ 3.1 to 31 µg/mL) | > 100 | ≤ 1 | > 100 | 10 to 100 (≈ 3.1 to 31 µg/mL) | > 100 | COc1ccc(-c2[nH]c(N)nc2-c2ccnc(C)c2)cc1OC [Example 1, 5-(3,4-Dimethoxyphenyl)-4-(2-methylpyridin-4-yl)-1H-imidazol-2-amine] |
| > 100 | > 100 | 1 to 10 (≈ 0.281 to 2.81 µg/mL) | > 100 | ≤ 1 | > 100 | 1 to 10 (≈ 0.281 to 2.81 µg/mL) | 10 to 100 (≈ 2.81 to 28.1 µg/mL) | COc1ccc(-c2nc(N)[nH]c2-c2ccnc(C)c2)cn1 [Example 2, 4-(6-Methoxypyridin-3-yl)-5-(2-methylpyridin-4-yl)-1H-imidazol-2-amine] |
| > 100 | > 100 | 1 to 10 (≈ 0.322 to 3.22 µg/mL) | > 100 | ≤ 1 | > 100 | 1 to 10 (≈ 0.322 to 3.22 µg/mL) | 10 to 100 (≈ 3.22 to 32.2 µg/mL) | Cc1cc(-c2[nH]c(N)nc2-c2ccc3c(c2)OCCCO3)ccn1 [Example 5, 4-(3,4-dihydro-2H-benzo[b][1,4]dioxepin-7-yl)-5-(2-methylpyridin-4-yl)-1H-imidazol-2-amine] |
| > 100 | > 100 | 1 to 10 (≈ 0.298 to 2.98 µg/mL) | > 100 | ≤ 1 | > 100 | 1 to 10 (≈ 0.298 to 2.98 µg/mL) | 10 to 100 (≈ 2.98 to 29.8 µg/mL) | COc1cc(-c2[nH]c(N)nc2-c2ccnc(C)c2)ccc1F [Example 6, 5-(4-Fluoro-3-methoxyphenyl)-4-(2-methylpyridin-4-yl)-1H-imidazol-2-amine] |
| > 100 | > 100 | ≤ 1 | > 100 | ≤ 1 | > 100 | ≤ 1 | 10 to 100 (≈ 2.93 to 29.3 µg/mL) | Nc1cc(-c2[nH]c(N)nc2-c2ccc3c(c2)CCO3)ccn1 [Example 8, 4-(2-Amino-4-(2,3-dihydrobenzofuran-5-yl)-1H-imidazol-5-yl)pyridin-2-amine] |
| > 100 | > 100 | > 100 | > 100 | 1 to 10 (≈ 0.294 to 2.94 µg/mL) | – | > 100 | > 100 | Nc1nc(-c2ccc3c(c2)OCCO3)c(-c2cccnc2)[nH]1 [Example 22, 4-(2,3-Dihydrobenzo[b][1,4]dioxin-6-yl)-5-(pyridin-3-yl)-1H-imidazol-2-amine] |
| > 100 | > 100 | 10 to 100 (≈ 2.95 to 29.5 µg/mL) | > 100 | 1 to 10 (≈ 0.295 to 2.95 µg/mL) | – | 10 to 100 (≈ 2.95 to 29.5 µg/mL) | > 100 | Nc1nc(-c2ccncn2)c(-c2ccc3c(c2)OCCO3)[nH]1 [Example 30] |
| > 100 | > 100 | 1 to 10 (≈ 0.375 to 3.75 µg/mL) | > 100 | ≤ 1 | – | 1 to 10 (≈ 0.375 to 3.75 µg/mL) | 10 to 100 (≈ 3.75 to 37.5 µg/mL) | Cc1cc(-c2[nH]c(N)nc2-c2ccc3c(c2)N(CC2CC2)C(=O)CO3)ccn1 [Example 67, 6-(2-Amino-4-(2-methylpyridin-4-yl)-1H-imidazol-5-yl)-4-(cyclopropylmethyl)-2H-benzo[b][1,4]oxazin-3(4H)-one] |
| > 100 | > 100 | 1 to 10 (≈ 0.363 to 3.63 µg/mL) | > 100 | ≤ 1 | – | 1 to 10 (≈ 0.363 to 3.63 µg/mL) | 10 to 100 (≈ 3.63 to 36.3 µg/mL) | Cc1cc(-c2[nH]c(N)nc2-c2ccc3c(c2)N(C(C)C)C(=O)CO3)ccn1 [Example 68, 6-(2-Amino-4-(2-methylpyridin-4-yl)-1H-imidazol-5-yl)-4-isopropyl-2H-benzo[b][1,4]oxazin-3(4H)-one] |
| > 100 | > 100 | 1 to 10 (≈ 0.389 to 3.89 µg/mL) | > 100 | ≤ 1 | – | 1 to 10 (≈ 0.389 to 3.89 µg/mL) | 10 to 100 (≈ 3.89 to 38.9 µg/mL) | Cc1cc(-c2[nH]c(N)nc2-c2ccc3c(c2)N(C2CCCC2)C(=O)CO3)ccn1 [Example 69, 6-(2-Amino-4-(2-methylpyridin-4-yl)-1H-imidazol-5-yl)-4-cyclopentyl-2H-benzo[b][1,4]oxazin-3(4H)-one] |
| > 100 | > 100 | 1 to 10 (≈ 0.409 to 4.09 µg/mL) | > 100 | ≤ 1 | – | 1 to 10 (≈ 0.409 to 4.09 µg/mL) | 10 to 100 (≈ 4.09 to 40.9 µg/mL) | Cc1cc(-c2nc(N)[nH]c2-c2ccc3c(c2)N(CCOCCO)C(=O)CO3)ccn1 [Example 70, 6-(2-Amino-4-(2-methylpyridin-4-yl)-1H-imidazol-5-yl)-4-(2-(2-hydroxyethoxy)ethyl)-2H-benzo[b][1,4]oxazin-3(4H)-one] |
| > 100 | > 100 | > 100 | > 100 | 1 to 10 (≈ 0.35 to 3.5 µg/mL) | – | > 100 | > 100 | CC(=O)Nc1nc(-c2ccc3c(c2)OCCO3)c(-c2ccnc(C)c2)[nH]1 [Example 72, N-(4-(2,3-Dihydrobenzo[b][1,4]dioxin-6-yl)-5-(2-methylpyridin-4-yl)-1H-imidazol-2-yl)acetamide] |
| > 100 | > 100 | > 100 | > 100 | > 100 | – | > 100 | > 100 | Cc1cc(-c2c(-c3ccc4c(c3)OCCO4)nc(N)n2C)ccn1 [Example 73, 4-(2,3-dihydrobenzo[b][1,4]dioxin-6-yl)-1-methyl-5-(2-methylpyridin-4-yl)-1H-imidazol-2-amine] |
| > 100 | > 100 | 1 to 10 (≈ 0.321 to 3.21 µg/mL) | > 100 | ≤ 1 | – | 1 to 10 (≈ 0.321 to 3.21 µg/mL) | 10 to 100 (≈ 3.21 to 32.1 µg/mL) | CNc1nc(-c2ccc3c(c2)NCCO3)c(-c2ccnc(C)c2)[nH]1 [Example 78, 4-(3,4-Dihydro-2H-benzo[b][1,4]oxazin-6-yl)-N-methyl-5-(2-methylpyridin-4-yl)-1H-imidazol-2-amine] |
| > 100 | > 100 | 10 to 100 (≈ 3.35 to 33.5 µg/mL) | > 100 | 1 to 10 (≈ 0.335 to 3.35 µg/mL) | – | 1 to 10 (≈ 0.335 to 3.35 µg/mL) | > 100 | Cc1cc(-c2[nH]c(N(C)C)nc2-c2ccc3c(c2)NCCO3)ccn1 [Example 79, 4-(3,4-Dihydro-2H-benzo[b][1,4]oxazin-6-yl)-N,N-dimethyl-5-(2-methylpyridin-4-yl)-1H-imidazol-2-amine] |
| > 100 | > 100 | 10 to 100 (≈ 3.09 to 30.9 µg/mL) | > 100 | ≤ 1 | – | 10 to 100 (≈ 3.09 to 30.9 µg/mL) | > 100 | Cc1cc(-c2[nH]c(=O)[nH]c2-c2ccc3c(c2)OCCO3)ccn1 [Example 82, 4-(2,3-Dihydrobenzo[b][1,4]dioxin-6-yl)-5-(2-methylpyridin-4-yl)-1,3-dihydro-2H-imidazol-2-one] |
| > 100 | > 100 | 1 to 10 (≈ 0.395 to 3.95 µg/mL) | > 100 | ≤ 1 | – | 1 to 10 (≈ 0.395 to 3.95 µg/mL) | 10 to 100 (≈ 3.95 to 39.5 µg/mL) | Cc1cc(-c2[nH]c(N)nc2-c2ccc3c(c2)N(CCOCCO)CCO3)ccn1 [Example 95, 2-(2-(6-(2-Amino-5-(2-methylpyridin-4-yl)-1H-imidazol-4-y1)-2,3-dihydro-4H-benzo[b][1,4]oxazin-4-yl)ethoxy)ethan-1-ol] |
